Data reported in US9012166B2, “Method for assaying histone methylation enzyme activity” (Kyushu Institute of Technology, priority 2010, dated 2015).

How the values were obtained:
Format in all cases: biochemical
trypsin [1] = experiment: Mixing assay of substrate compound with peptidase (trypsin), AMC fluorescence; conditions: 1,000 μM BocLys(Me)nMCA and trypsin; λex 390 nm, λem 460 nm
Experimental: (§1) Distilled water was added to 10 μL of 2×HMT buffer (100 mM Tris-HCl (pH 8.5), 20 mM MgCl2, 40 mM KCl, 20 mM 2-mercaptoethanol, 500 mM sucrose) and 1 μL of a BocLysMCA solution to adjust the total volume to 20 μL. To the resultant solution was added 30 μL of a peptidase solution (20 mg/mL trypsin or 20 mAU/mL lysyl endopeptidase), which was then mixed and incubated at 37° C. for 15 minutes. Then, the fluorescence intensity of the solution was measured at an excitation wavelength (λex) of 390 nm and a fluorescence wavelength (λem) of 460 nm. The wavelength is a wavelength for detecting AMC (7-amino-4-methylcoumarin) released by the cleavage of the amide bond between Lys and MCA of BocLysMCA. The fluorescence intensity of AMC was similarly measured by performing a mixing assay by the same method as the above method except for using monomethylated BocLysMCA (i.e., “BocLys(Me)MCA”), dimethylated BocLysMCA (i.e., “BocLys(Me)2MCA”), or trimethylated BocLysMCA (i.e., “BocLys(Me)3MCA”) in place of BocLysMCA.

trypsin [2] = experiment: LC/MS analysis of reaction between substrate compound and trypsin; conditions: Example 3; 37° C., 15 minutes
Experimental: (§2) Distilled water was added to 10 μL of 2×HMT buffer (100 mM Tris-HCl (pH 8.5), 20 mM MgCl2, 40 mM KCl, 20 mM 2-mercaptoethanol, 500 mM sucrose) and 1 μL of a BocLysMCA solution to adjust the total volume to 20 μL. To the resultant solution was added 30 μL of a peptidase solution (20 mg/mL trypsin or 20 mAU/mL lysyl endopeptidase), which was then mixed and incubated at 37° C. for 15 minutes. Then, the solution was applied to a liquid chromatograph mass spectrometer (LC/MS) for analysis. Analysis was performed by the same method as that for the above analysis except for using monomethylated BocLysMCA (i.e., “BocLys(Me)MCA”), dimethylated BocLysMCA (i.e., “BocLys(Me)2MCA”), or trimethylated BocLysMCA (i.e., “BocLys(Me)3MCA”) in place of BocLysMCA. Analysis was also carried out by the same method except for using, in place of the above-described peptidase solution, an equal volume of distilled water.

lysyl endopeptidase [3] = target: T1, lysyl endopeptidase (Achromobacter lyticus, UniProt P15636); experiment: Mixing assay of substrate compound with peptidase (lysyl endopeptidase), AMC fluorescence; conditions: 1,000 μM BocLys(Me)nMCA and lysyl endopeptidase; λex 390 nm, λem 460 nm
T1 sequence (P15636 206-473 limits assumed, species assumed): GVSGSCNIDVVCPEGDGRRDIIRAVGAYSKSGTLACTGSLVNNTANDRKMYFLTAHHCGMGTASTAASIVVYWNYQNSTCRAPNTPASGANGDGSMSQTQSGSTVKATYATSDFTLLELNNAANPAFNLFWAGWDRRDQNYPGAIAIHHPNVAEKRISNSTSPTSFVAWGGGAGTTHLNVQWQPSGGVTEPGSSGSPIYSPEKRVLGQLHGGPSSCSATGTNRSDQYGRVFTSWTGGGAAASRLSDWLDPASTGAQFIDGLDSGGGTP
Experimental: as §1

lysyl endopeptidase [4] = target: T1, lysyl endopeptidase; experiment: LC/MS analysis of reaction between substrate compound and lysyl endopeptidase; conditions: Example 3; 37° C., 15 minutes
Experimental: as §2

G9a (GST-mG9a) = target: T2, G9a (GST-mG9a) (Mus musculus, UniProt Q9Z148); experiment: Assay for measuring histone methyltransferase activity using peptidyl MCA, inhibitor evaluation with G9a; conditions: Example 9; Ac-histone H3 (1-9)-MCA; AMC fluorescence λex 390 nm/λem 460 nm; FIG. 19; read-out: IC50 for G9a
T2 sequence (Q9Z148 1-1263): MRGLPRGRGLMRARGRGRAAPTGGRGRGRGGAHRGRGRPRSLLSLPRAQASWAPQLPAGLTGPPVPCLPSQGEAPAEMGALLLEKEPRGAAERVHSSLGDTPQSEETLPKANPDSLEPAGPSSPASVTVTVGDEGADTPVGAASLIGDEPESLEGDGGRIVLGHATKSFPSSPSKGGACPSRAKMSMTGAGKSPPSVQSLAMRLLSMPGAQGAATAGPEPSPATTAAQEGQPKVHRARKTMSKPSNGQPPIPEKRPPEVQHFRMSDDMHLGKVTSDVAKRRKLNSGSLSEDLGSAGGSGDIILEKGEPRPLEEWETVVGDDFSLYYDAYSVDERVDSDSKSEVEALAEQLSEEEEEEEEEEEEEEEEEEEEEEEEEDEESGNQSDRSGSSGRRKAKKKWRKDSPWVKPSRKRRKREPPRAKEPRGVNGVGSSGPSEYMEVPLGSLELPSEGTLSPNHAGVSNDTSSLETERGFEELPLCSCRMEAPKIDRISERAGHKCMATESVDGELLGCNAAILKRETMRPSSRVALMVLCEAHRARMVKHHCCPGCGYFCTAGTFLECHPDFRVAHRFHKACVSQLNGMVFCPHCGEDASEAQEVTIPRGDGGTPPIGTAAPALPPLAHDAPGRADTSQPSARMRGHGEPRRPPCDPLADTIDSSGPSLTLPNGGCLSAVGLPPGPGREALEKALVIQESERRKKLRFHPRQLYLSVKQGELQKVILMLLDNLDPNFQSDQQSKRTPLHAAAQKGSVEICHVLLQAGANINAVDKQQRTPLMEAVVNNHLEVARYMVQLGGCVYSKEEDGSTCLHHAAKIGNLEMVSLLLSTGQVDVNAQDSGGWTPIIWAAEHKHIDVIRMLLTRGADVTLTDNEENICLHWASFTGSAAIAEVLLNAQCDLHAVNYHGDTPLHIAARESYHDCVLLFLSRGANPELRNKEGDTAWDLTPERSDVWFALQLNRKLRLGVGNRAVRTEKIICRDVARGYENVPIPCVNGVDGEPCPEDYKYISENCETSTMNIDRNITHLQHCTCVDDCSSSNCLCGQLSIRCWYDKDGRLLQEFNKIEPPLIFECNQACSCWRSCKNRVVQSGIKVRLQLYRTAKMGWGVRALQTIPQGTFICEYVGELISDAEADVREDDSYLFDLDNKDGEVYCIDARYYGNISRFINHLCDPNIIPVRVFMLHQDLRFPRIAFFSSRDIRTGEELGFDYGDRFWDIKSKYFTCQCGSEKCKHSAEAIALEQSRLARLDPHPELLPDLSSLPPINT
Experimental: When G9a was adopted as a histone methyltransferase, the following method was used. 10 μL of 2×HMT buffer (100 mM Tris-HCl (pH 8.5), 20 mM MgCl2, 40 mM KCl, 20 mM 2-mercaptoethanol, 500 mM sucrose), 0.4 μL of a BSA solution (150 μg/mL), 2 μL of GST-mG9a (0, 0.5 μg/μL), 1 μL of gliotoxin (any of various concentrations) and 2.6 μL of distilled water were mixed and then incubated at room temperature for 1 hour. Then, 2 μL of SAM (10 mM) and 2 μL of a peptidyl MCA (Ac-histone H3 (1-9)-MCA) solution (0.6 mM) were added thereto, which was then incubated at 37° C. for 1 hour. Thereafter, 30 μL of a trypsin solution (20 mg/mL) was added thereto, followed by incubation at 37° C. for 15 minutes. Then, the fluorescence intensity of the solution was measured at an excitation wavelength (λex) of 390 nm and a fluorescence wavelength (λem) of 460 nm. The final concentration of GST-mG9a during the measurement of fluorescence intensity was 0.05 μg/μL. The results of the assay for measuring histone methyltransferase activity are shown in the middle panel of FIG. 18.
The rate of the inhibition of methylation by gliotoxin was calculated from the results in the left panel and the middle panel of FIG. 18. Specifically, the value (%) was calculated which was obtained by dividing “a value obtained by subtracting “the fluorescence intensity of AMC when peptidase was added but gliotoxin was not added” from “the fluorescence intensity of AMC when both peptidase and gliotoxin were added”” by “a value obtained by subtracting “the fluorescence intensity of AMC when peptidase was added but gliotoxin was not added” from “the fluorescence intensity of AMC when no peptidase or gliotoxin was added”” and multiplying the resultant value by 100. The rate (%) of the inhibition of methylation by gliotoxin is shown in the right panel of FIG. 18.
Specifically, the assay for measuring histone methyltransferase activity was carried out by the same method as the method using G9a […] in Example 8 except for using S-Adenosyl-L-homocysteine (SAH) in place of gliotoxin. SAH is a by-product of the methylation reaction and is known to inhibit histone methyltransferase in a negative feedback manner. […] The rate (%) of the inhibition of methylation by SAH was calculated from the results in the left panel of FIG. 19. The results are shown in the right panel of FIG. 19.
When G9a was adopted as a histone methyltransferase, the following method was used. […] Then, the fluorescence intensity of the solution was measured at an excitation wavelength (λex) of 330 nm and a fluorescence wavelength (λem) of 380 nm or at an excitation wavelength (λex) of 390 nm and a fluorescence wavelength (λem) of 460 nm. The final concentration of GST-mG9a during the measurement of fluorescence intensity was 0 μg/μL or 0.05 μg/μL.

| SMILES | fluorescence intensity of AMC when the fluorescence intensity for BocLysMCA was set to 100% (trypsin [1]) [%] | hydrolysis by trypsin (LC/MS peaks) (trypsin [2]) | fluorescence intensity of AMC when the fluorescence intensity for BocLysMCA was set to 100% (lysyl endopeptidase [3]) [%] | hydrolysis by lysyl endopeptidase (LC/MS peaks) (lysyl endopeptidase [4]) | IC50 (G9a (GST-mG9a)) [µM] |
| --- | --- | --- | --- | --- | --- |
| Cc1cc(=O)oc2cc(NC(=O)[C@H](CCCCN(C)C)NC(=O)OC(C)(C)C)ccc12 [BocLys(Me)2MCA, dimethylated BocLysMCA] | 0.12 | almost no occurrence of hydrolysis | 0.053 | almost no occurrence of hydrolysis | – |
| Cc1cc(=O)oc2cc(NC(=O)[C@H](CCCC[N+](C)(C)C)NC(=O)OC(C)(C)C)ccc12 [BocLys(Me)3MCA, trimethylated BocLysMCA] | 0.24 | almost no occurrence of hydrolysis | 0.25 | almost no occurrence of hydrolysis | – |
| CNCCCC[C@H](NC(=O)OC(C)(C)C)C(=O)Nc1ccc2c(C)cc(=O)oc2c1 [BocLys(Me)MCA, monomethylated BocLysMCA] | 2.7 | almost no occurrence of hydrolysis | 0.096 | almost no occurrence of hydrolysis | – |
| Nc1ncnc2c1ncn2[C@@H]1O[C@H](CSCC[C@H](N)C(=O)O)[C@@H](O)[C@H]1O [SAH, S-Adenosyl-L-homocysteine] | – | – | – | – | 490 |
